In US20220000110A1, “COMPOSITIONS COMPRISING PYRIDINE CARBOXYLATE HERBICIDES AND CELLULOSE BIOSYNTHESIS INHIBITOR HERBICIDES” (priority 2018, published 2022):
Where two headings read alike, the source gives them in different places.

How the values were obtained:
Type in all cases: in vivo
[1] = test system: Amaranthus retroflexus (pigweed); experiment: Greenhouse postemergence herbicidal effect, visual injury after 20-22 d; settings: AMARE
Description: (§1) Greenhouse Trial Methodology—Evaluation of Postemergence Herbicidal Effect
(§2) Seeds of the desired test plant species were planted in a 90:10% v/v (volume/volume) mixture of PRO-MIX® BX (Premier Tech Horticulture, Quakertown, Pa., USA) and PROFILE® GREENS GRADE™ (Profile Products LLC, Buffalo Grove, Ill., USA) planting mixture, which typically has a pH of 5.2 to 6.2 and an organic matter content of at least 50 percent, in plastic pots with a surface area of 103.2 square centimeters (cm^2). In some aspects, to help ensure good germination and healthy plants, a fungicide treatment and/or other chemical or physical treatment was applied. The plants were grown for 7-36 days (d) in a greenhouse with an approximate 14-hour (h) photoperiod which was maintained at about 23° C. during the day and 22° C. during the night. Nutrients and water were added on a regular basis and supplemental lighting was provided with overhead metal halide 1000-Watt lamps as necessary. The plants were employed for testing when they reached the second or third true leaf stage.
(§3) Emulsifiable concentrates of each of each pyridine carboxylate herbicide (Compound A or Compound B) were prepared at 100 grams acid equivalent per liter (g ae/L). The emulsifiable concentrates also included a safener, at 120 grams active ingredient per liter (g ai/L). An aliquot of each emulsifiable concentrate was placed in a 25 mL glass vial and diluted with an aqueous mixture of 1.25% (v/v) ACTIROB® B esterified rapeseed oil (Bayer Crop Science, Research Triangle Park, N.C., USA) or MSO® Concentrate with LECI-TECH® methylated soybean oil (Loveland Products, Loveland, Colo., USA) to obtain concentrated stock solutions at the highest application rate for each herbicide, based upon a 12 milliliter (mL) application volume at a rate of 187 liters per hectare (L/ha). The concentrated stock solutions were further diluted with an aqueous mixture of 1.25% v/v ACTIROB® B or MSO® Concentrate with LECI-TECH® to obtain stock solutions at reduced application rates for each herbicide. Spray solutions of the herbicide combinations (Compound A or Compound B plus the CBI herbicide) were prepared by adding weighed amounts or aliquots of the CBI herbicide to the stock solutions of Compound A or Compound B to form 12-mL spray solutions in two-way combinations.
(§4) The spray solutions were applied to the plant material with an overhead Mandel track sprayer equipped with 8002E nozzles calibrated to deliver 187 L/ha over an application area of 0.503 square meters (m^2) at a spray height of 18 inches (43 centimeters (cm)) above the average plant canopy. Control plants were sprayed in the same manner with the solvent blank. All pyridine carboxylate herbicide (component a) application rates are given as “g ae/ha” and all CBI herbicide (component b) application rates are given as “g ai/ha.”
(§5) The treated plants and control plants were placed in a greenhouse as described above and watered by sub-irrigation to prevent wash-off of the test compounds. After 20-22 d, the condition of the test plants as compared with that of the control plants was determined visually and scored on a scale of 0 to 100 percent where 0 corresponds to no injury and 100 corresponds to complete kill.

[2] = test system: Chenopodium album L. (common lambsquarters); experiment: as above; settings: CHEAL
Description: as §1, §2, §3, §4, §5

[3] = test system: Cyperus esculentus (nutsedge); experiment: as above; settings: Table 1, CYPES
Description: as §1, §2, §3, §4, §5

[4] = test system: Digitaria sanguinalis (large crabgrass); experiment: as above; settings: DIGSA
Description: as §1, §2, §3, §4, §5

[5] = test system: Euphorbia heterophylla (poinsettia); experiment: as above; settings: Table 1, EPHHL
Description: as §1, §2, §3, §4, §5

Glycine max (soybean) = experiment: as above; settings: Table 1, GLXMA
Description: as §1, §2, §3, §4, §5

[6] = test system: Ipomoea hederacea (ivyleaf morningglory); experiment: as above; settings: IPOHE
Description: as §1, §2, §3, §4, §5

[7] = test system: Lolium multiflorum (Italian rye grass); experiment: as above; settings: Table 2, LOLMU
Description: as §1, §2, §3, §4, §5

[8] = test system: Rumex obtusifolius (broad-leaf dock); experiment: as above; settings: Table 1, RUMOB
Description: as §1, §2, §3, §4, §5

[9] = test system: Setaria faberi (giant foxtail); experiment: as above; settings: SETFA
Description: as §1, §2, §3, §4, §5

[10] = test system: Sorghum vulgare (grain sorghum); experiment: as above; settings: Table 1, SORVU
Description: as §1, §2, §3, §4, §5

[11] = test system: Viola tricolor (wild pansy); experiment: as above; settings: VIOTR
Description: as §1, §2, §3, §4, §5

[12] = test system: Triticum aestivum (spring wheat); settings: TRZAS
Description: as §1, §2, §3, §4, §5

## N#CCOC(=O)c1nc(-c2ccc3cc[nH]c3c2F)c(F)c(N)c1Cl [Compound A, cyanomethyl 4-amino-3-chloro-5-fluoro-6-(7-fluoro-1H-indol-6-yl)pyridine-2-carboxylate]
[1]; Table 1, Compound A 7.5 g/ha
  Obs % visual injury: 88%
[1]; Table 1, Compound A 10 g/ha
  Obs % visual injury: 88%
[1]; Table 3, Compound A 7.5 g/ha
  Obs % visual injury: 78%
[1]; Table 3, Compound A 10 g/ha
  Obs % visual injury: 78%
[1]; Table 3, Compound A 15 g/ha
  Obs % visual injury: 83%
[1]; Table 4, Compound A 7.5 g/ha
  Obs % visual injury: 78%
[1]; Table 4, Compound A 10 g/ha
  Obs % visual injury: 78%
[1]; Table 4, Compound A 15 g/ha
  Obs % visual injury: 83%
[2]; Table 1, Compound A 7.5 g/ha
  Obs % visual injury: 98%
[2]; Table 1, Compound A 10 g/ha
  Obs % visual injury: 93%
[2]; Table 3, Compound A 7.5 g/ha
  Obs % visual injury: 70%
[2]; Table 3, Compound A 10 g/ha
  Obs % visual injury: 78%
[2]; Table 3, Compound A 15 g/ha
  Obs % visual injury: 83%
[2]; Table 4, Compound A 7.5 g/ha
  Obs % visual injury: 70%
[2]; Table 4, Compound A 10 g/ha
  Obs % visual injury: 78%
[2]; Table 4, Compound A 15 g/ha
  Obs % visual injury: 83%
[3]; Compound A 7.5 g/ha
  Obs % visual injury: 30%
[3]; Compound A 10 g/ha
  Obs % visual injury: 8%
[4]; Table 1, Compound A 7.5 g/ha
  Obs % visual injury: 35%
[4]; Table 1, Compound A 10 g/ha
  Obs % visual injury: 38%
[4]; Table 2, Compound A 7.5 g/ha
  Obs % visual injury: 45%
[4]; Table 2, Compound A 10 g/ha
  Obs % visual injury: 25%
[5]; Compound A 7.5 g/ha
  Obs % visual injury: 97%
[5]; Compound A 10 g/ha
  Obs % visual injury: 97%
Glycine max (soybean); Compound A 7.5 g/ha
  Obs % visual injury: 80%
Glycine max (soybean); Compound A 10 g/ha
  Obs % visual injury: 90%
[6]; Table 1, Compound A 7.5 g/ha
  Obs % visual injury: 20%
[6]; Table 1, Compound A 10 g/ha
  Obs % visual injury: 25%
[6]; Table 2, Compound A 7.5 g/ha
  Obs % visual injury: 3%
[6]; Table 2, Compound A 10 g/ha
  Obs % visual injury: 8%
[7]; Compound A 7.5 g/ha
  Obs % visual injury: 0%
[7]; Compound A 10 g/ha
  Obs % visual injury: 0%
[8]; Compound A 7.5 g/ha
  Obs % visual injury: 20%
[8]; Compound A 10 g/ha
  Obs % visual injury: 13%
[9]; Table 1, Compound A 7.5 g/ha
  Obs % visual injury: 78%
[9]; Table 1, Compound A 10 g/ha
  Obs % visual injury: 80%
[9]; Table 2, Compound A 7.5 g/ha
  Obs % visual injury: 70%
[9]; Table 2, Compound A 10 g/ha
  Obs % visual injury: 70%
[10]; Compound A 7.5 g/ha
  Obs % visual injury: 0%
[10]; Compound A 10 g/ha
  Obs % visual injury: 0%
[11]; Table 1, Compound A 7.5 g/ha
  Obs % visual injury: 38%
[11]; Table 1, Compound A 10 g/ha
  Obs % visual injury: 15%
[11]; Table 2, Compound A 7.5 g/ha
  Obs % visual injury: 10%
[11]; Table 2, Compound A 10 g/ha
  Obs % visual injury: 18%
[12]; Table 3, Compound A 7.5 g/ha
  Obs % visual injury: 3%
[12]; Table 3, Compound A 10 g/ha
  Obs % visual injury: 3%
[12]; Table 3, Compound A 15 g/ha
  Obs % visual injury: 0%
[12]; Table 4, Compound A 7.5 g/ha
  Obs % visual injury: 3%
[12]; Table 4, Compound A 10 g/ha
  Obs % visual injury: 3%
[12]; Table 4, Compound A 15 g/ha
  Obs % visual injury: 0%
